Values joined by “and” are separate entries in the source; they are usually repeats but may differ in a detail not shown here. Equal values may be shown once.
Experiments:
[1] = target: smooth muscle angiotensin II receptor; assay: Assay A: Angiotensin II Binding Activity (125I-AII displacement, rat uterine membrane preparation); conditions: 50% displacement of specifically bound 125I-AII, rat uterine membranes, 25° C., 60 min
Protocol: Compounds of the invention were tested for ability to bind to the smooth muscle angiotensin II receptor using a rat uterine membrane preparation. […] Rat uterine membranes were prepared from fresh tissue. All procedures were carried out at 4° C. Uteri were stripped of fat and homogenized in phosphate-buffered saline at pH 7.4 containing 5 mM EDTA. The homogenate was centrifuged at 1500×g for 20 min., and the supernatant was recentrifuged at 100,000×g for 60 min. The pellet was resuspended in buffer consisting of 2 mM EDTA and 50 mM Tris-HCl (pH 7.5) to a final protein concentration of 4 mg/ml. […] The reaction was initiated by the addition of membrane protein and the mixture was incubated at 25° C. for 60 min. The incubation was terminated with ice-cold 50 mM Tris-HCl (pH 7.5) and the mixture was filtered to separate membrane-bound labelled peptide from the free ligand. The incubation tube and filter were washed with ice-cold buffer. Filters were assayed for radioactivity in a Micromedic gamma counter. Nonspecific binding was defined as binding in the presence of 10 μM of unlabelled AII. Specific binding was calculated as total binding minus nonspecific binding. […] Binding data were analyzed by a nonlinear least-squares curve fitting program.

rabbit aortic rings = assay: Assay B: In Vitro Vascular Smooth Muscle Response for AII (antagonist activity in aortic rings); format: cell-based; conditions: antagonist at 10^-5 M, AII concentration-response curves, Schild calculation; aorta rings from two rabbits, two values per cell
Protocol: Assay B: In Vitro Vascular Smooth Muscle-Resionse for AII
The compounds of the invention were tested for antagonist activity in rabbit aortic rings. Male New Zealand white rabbits (2-2.5 kg) were sacrificed using an overdose of pentobarbital and exsanguinated via the carotid arteries. The thoracic aorta was removed, cleaned of adherent fat and connective tissue and then cut into 3-mm ring segments. The endothelium was removed from the rings by gently sliding a rolled-up piece of filter paper into the vessel lumen. The rings were then mounted in a water-jacketed tissue bath, maintained at 37° C., between moveable and fixed ends of a stainless steel wire with the moveable end attached to an FT03 Grass transducer coupled to a Model 7D Grass Polygraph for recording isometric force responses. The bath was filled with 20 ml of oxygenated (95% oxygen/5% carbon dioxide) Krebs solution of the following composition (nM) : 130 NaCl, 15 NaHCO3, 15 KCl, 1.2 NaH2PO4, 1.2 MgSO4, 2.5 CaCl2, and 11.4 glucose. […] Angiotensin II concentration-response curves were then recorded (3×10^−10 to 1×10^−5 M). […] The effectiveness of the test compound was expressed in terms of pA2 values and were calculated according to H. O. Schild [Br. J. Pharmacol. Chemother., 2,189-206 (1947)]. […] Each test antagonist was evaluated in aorta rings from two rabbits.

AII pressor response = assay: Assay C: In Vivo Intraduodenal Pressor Assay Response for AII Antagonists; design: species or system Sprague-Dawley rats; conditions: 30 mg/kg i.d., average of two rats; for Assay C Inhibition: inhibition of AII pressor response, anesthetized ganglion-blocked rats; for Assay C Duration: time from peak percent inhibition to 50% of peak
Protocol: Assay C: In Vivo Intraduodenal Pressor Assay Response for AII Antagonists
Male Sprague-Dawley rats weighing 225-300 grams were anesthetized with Inactin (100 mg/kg, i.p.) and catheters were implanted into the trachea, femoral artery, femoral vein and duodenum. Arterial pressure was recorded from the femoral artery catheter on a Gould chart recorder (Gould, Cleveland, OH). The femoral vein catheter was used for injections of angiotensin II, mecamylamine and atropine. The tracheal catheter allows for airway patency, and the duodenal catheter was used for intraduodenal (i.d.) administration of test compounds. After surgery, the rats were allowed to equilibrate for 30 minutes. Mecamylamine (3 mg/kg, 0.3 ml/kg) and atropine (400 ug/kg, 0.3 ml/kg) were then given i.v. to produce ganglion blockade. These compounds were administered every 90 minutes throughout the test procedure. Angiotensin II was given in bolus does i.v. (30 ng/kg in saline with 0.5% bovine serum albumin, 0.1 ml/kg) every 10 minutes three times or until the increase in arterial pressure produced was within 3 mmHg for two consecutive AII injections. The last two AII injections were averaged and were taken as the control AII pressor response. Ten minutes after the final control AII injection, the test compound (dissolved in sodium bicarbonate) was administered i.d. at a dose of 30 mg/kg in a volume of 0.2 ml. Angiotensin II injections were then given 5, 10, 20, 30, 45, 60, 75, 90, and 120 minutes after administration of the test compound and response of arterial pressure was monitored. The response to AII was calculated as percent of the control response and then the percent inhibition is calculated as 100 minus the percent control response. Duration of action of a test compound was defined as the time from peak percent inhibition to 50% of peak. One compound at one dose was tested in each rat. Each test compound was tested in two rats and the values for the two rats were averaged.

Structure (SMILES): CCCCc1nn(CCCC)c(=O)n1Cc1ccc(-c2ccccc2C(=O)O)cc1 [Example 1, 4′-[(1,3-dibutyl-4,5-dihydro-5-oxo-1H-1,2,4-triazol-4-yl)methyl] [1,1′-biphenyl]-2-carboxylic acid]
- IC50 [1]: 101 nM
- Assay B PA2 (rabbit aortic rings): 7.3 and 6.7
- Assay C Inhibition (AII pressor response): 93%
- Assay C Duration (AII pressor response): 60 to 100 min

Structure (SMILES): CCCCc1nn(CCCC)c(=O)n1Cc1ccc(-c2ccccc2-c2nnn[nH]2)cc1 [Example 2, 2,5-dibutyl-2,4-dihydro-4-[[2-(1H-tetrazol-5-yl)[1,1′-biphenyl]-4′-yl]methyl]-3H-1,2.4-triazol-3-one]
- IC50 [1]: 4.9 nM
- Assay B PA2 (rabbit aortic rings): 9.0 and 9.4
- Assay C Inhibition (AII pressor response): 100%
- Assay C Duration (AII pressor response): >200 min
